From patent US20250109127A1, “METHODS OF USE OF PHENOXYPROPYLAMINE COMPOUNDS TO TREAT DEPRESSION” (Minerva Neurosciences, Inc., priority 2013, published 2025)
Several values for one entry are separate records, joined by “and”; a condition that tells them apart may be missing. Identical values can stand only once. Counter-ions that a name gives are not always drawn.

Tested on: 5-HT release in the rat prefrontal cortex
Test: Microdialysis: 5-HT release in prefrontal cortex after I.P. administration
Assay type: in vivo
Conditions: for 5-HT release, individual animals / 5-HT release, MEAN: 0.3 mg/kg I.P.; for 5-HT release, individual animals: one column per animal R#11,12,18,23,29,30,17,24, hydrochloride; for 5-HT release, MEAN / 5-HT release (% of basal levels) measured in dialysates, MEAN: n = 8; for serotonin levels, increase (not statistically significant): SON-117 0.1 mg/kg IP; for 5-HT release (% of basal levels) measured in dialysates, MEAN: SON-117 3 mg/kg IP
Experimental: The aim of the study was to evaluate, using microdialysis, the effects of an intraperitoneal (I.P.) administration in rats of three different doses of SON-117 on dopamine and its metabolites, serotonin and its metabolite (5-HIAA), and norepinephrine levels in prefrontal cortex.
Thirty-two adult male Wistar rats were used for the whole study (4 groups of eight animals planned for the study, Table 1).
Surgery was performed on rats weighing about 300 g at the beginning of the experiments. Rats were anaesthetized with Ketamine (50 mg/kg) & Xylazine (15 mg/kg) by intramuscular administration. The animals were placed in a stereotaxic apparatus in the flat-skull position at a constant setting of −3.3 mm between ear bars and the incisor bar. The animals were treated with a local anesthesic (xylocaine 1%, Astra Zeneca) and an analgesic (Temgesic, from Schering Plough, 0.05 mg/kg, s.c.). A rostrocaudal midline incision was made with a lancet to expose the dorsal skull surface. The “stereotaxic zero” was defined by the Bregma in accordance with Paxinos and Watson's atlas (1986). A hole was drilled in the skull with a drill and the meninges were pierced with a sterile needle to implant a CMA12 guide cannula which later received the dialysis probe.
Coordinates used for implanting guide cannula in prefrontal cortex from Bregma were anteroposterior 3.7 mm, mediolateral 0.8 mm, and dorsoventral −2 mm (top of the probe was at −5 mm). The guide cannula was fixed to the skull with two stainless steel screws (1.88 mm outside diameter) anchored. An application of dental cement was added. A plastic collar allowed each animal to be tethered to a Swivel assembly of the CMA 120 awake animal system. Following surgery, rats were kept in individual cages and allowed to recover for a minimum of 3-5 days before the experimentation. The rats were handled and put in plastic bowl for 10 min at least every day to habituate the animals to their new environment for the dialysis. An I.P. administration with saline was also performed every day.
Dialysis probes (CMA12/3 mm, membrane, 20 kD cut-off, Carnegie Medicine, Stockholm, Sweden), were carefully washed before inserting into the guide cannula. The wash was performed with the artificial cerebrospinal fluid (aCSF) medium (NaCl 147 mM, KCl 2.7 mM, CaCl2 1.2 mM, MgCl2 0.85 mM) at room temperature. The dialysis system was then equilibrated at 20° C. at a perfusion rate of 1 μl/min with a Carnegie pump (CMA100). All catheters (FEP tubing, internal volume of 1.2 μl/10 cm, and tubing adaptors) used for microdialysis were treated in the same conditions.
The probes duly prepared were inserted into the guide cannula and the CMA120 Swivel assembly secured to the animal using a plastic collar. Flow through the dialysis probe with aCSF was maintained at a rate of 1 μl/min during the whole experimentation. The first four fractions (corresponding to 2 hours) were discarded to avoid the effects of parenchymal disturbance and to ensure that an approximate steady-state level was reached. Fractions were then collected over a period of 8.5 h during which time the animals remained quiet. The dialysates were automatically collected with an autosampler (microfraction collector CMA 140, Carnegie Medicin) and stored at −80° C. until analysis. […] Perfusion was then maintained for 7 hours with aCSF. The dialysates (30 μl) were collected into 300 μl vials, transferred into dry ice and then kept frozen (−80° C.) until analysis. Frozen samples were shipped to a partner for analysis. At the end of the microdialysis study, a PBS with colored ink was perfused through the probe in order to visualize the dialyzed area.
Catecholamine assay: Concentrations of dopamine, DOPAC, HVA, 5-HIAA, 5-HT, and norepinephrin were determined for each sample by HPLC coupled with electrochemical detection. […]

Cc1nnc(-c2cc3c(OC[C@@H](O)CN4CCC(c5ccc(Cl)c(Cl)c5)CC4)cccc3o2)o1 [SON-117, (S)-1-(4-(3,4-dichlorophenyl)piperidino)-3-(2-(5-methyl-1,3,4-oxadiazol-2-yl)benzo(b)furan-4-yloxy)-2-propanol hydrochloride]
5-HT release, individual animals (T3 h 30-T4 h): 200.54 % of respective basal and 84.61 % of respective basal and 62.15 % of respective basal and 60.73 % of respective basal and 115.12 % of respective basal and 46.42 % of respective basal and 361.81 % of respective basal
5-HT release, MEAN (T3 h-T3 h 30): 112.03 % of respective basal
5-HT release, individual animals (T3 h-T3 h 30): 118.62 % of respective basal and 100.39 % of respective basal and 94.04 % of respective basal and 122.16 % of respective basal and 126.07 % of respective basal and 27.45 % of respective basal and 195.48 % of respective basal
5-HT release, MEAN (T4 h 30-T5 h): 105.19 % of respective basal
5-HT release, individual animals (T4 h 30-T5 h): 144.93 % of respective basal and 86.55 % of respective basal and 70.67 % of respective basal and 69.54 % of respective basal and 82.71 % of respective basal and 313.44 % of respective basal and 18.96 % of respective basal and 54.73 % of respective basal
5-HT release, MEAN (T4 h-T4 h 30): 80.14 % of respective basal
5-HT release, individual animals (T4 h-T4 h 30): 87.68 % of respective basal and 67.29 % of respective basal and 102.65 % of respective basal and 67.53 % of respective basal and 83.72 % of respective basal and 130.39 % of respective basal and 23.64 % of respective basal and 78.23 % of respective basal
5-HT release, MEAN (T5 h 30-T6 h): 106.06 % of respective basal
5-HT release, individual animals (T5 h 30-T6 h): 149.11 % of respective basal and 44.15 % of respective basal and 83.73 % of respective basal and 57.89 % of respective basal and 95.31 % of respective basal and 328.43 % of respective basal and 13.82 % of respective basal and 76.03 % of respective basal
5-HT release, MEAN (T5 h-T5 h 30): 100.56 % of respective basal
5-HT release, individual animals (T5 h-T5 h 30): 81.27 % of respective basal and 37.01 % of respective basal and 187.99 % of respective basal and 64.78 % of respective basal and 81.96 % of respective basal and 177.83 % of respective basal and 7.58 % of respective basal and 166.02 % of respective basal
5-HT release, MEAN (T6 h 30-T7 h): 103.94 % of respective basal
5-HT release, individual animals (T6 h 30-T7 h): 181.36 % of respective basal and 59.67 % of respective basal and 70.80 % of respective basal and 52.79 % of respective basal and 109.41 % of respective basal and 187.49 % of respective basal
5-HT release, MEAN (T6 h-T6 h 30): 95.56 % of respective basal
5-HT release, individual animals (T6 h-T6 h 30): 73.74 % of respective basal and 57.84 % of respective basal and 81.54 % of respective basal and 59.72 % of respective basal and 94.43 % of respective basal and 108.00 % of respective basal and 20.86 % of respective basal and 268.32 % of respective basal
5-HT release, MEAN (T-30 min-T0 (before administration)): 94.43 % of respective basal
5-HT release, MEAN (T-1 h 30-T-1 h (before administration)): 100.12 % of respective basal
5-HT release, MEAN (T-1 h-T-30 min (before administration)): 104.14 % of respective basal
serotonin levels, increase (not statistically significant) (at 2.5 h): 368%
serotonin levels, increase (not statistically significant) (from 4.5 h to 7 h): 350%
5-HT release, maximum increase observed (SON-117 0.1 mg/kg, at 2.5 h): 369%
levels of 5-HT compared to the citalopram treated group (significant) (SON-117 0.1 mg/kg, at 2.5 h, 4.5 and 5.5 h): higher
5-HT dialysate levels vs mean pre-administration value (SON-117 0.3 mg/kg IP): no statistically significant differences
levels of 5-HT compared to the citalopram treated group (significant) (SON-117 0.3 mg/kg, at 1 h): slightly lower
5-HT release (% of basal levels) measured in dialysates, MEAN (T0-T30 min): 100.79 % of basal levels
5-HT release (% of basal levels) measured in dialysates, MEAN (T30-T1 h): 122.25 % of basal levels
